Laboratory results from US12539298B2, “Lobinaline N-oxides as positive allosteric modulators of the dopamine transporter with potential value in the treatment of substance abuse disorders” (University of Kentucky Research Foundation, priority 2019, dated 2026).

Key:
DAT [1] = target: T1, DAT (Rattus norvegicus, UniProt P23977); assay: DA clearance in striatum of anesthetized rats by in vivo electrochemistry (high-speed chronoamperometry), Example 8; set-up: DA clearance in striatum and nucleus accumbens of urethane-anesthetized SD rats; from tissue; host or cells: striatum / nucleus accumbens of living anesthetized SD rats; species or system SD rats
T1 sequence (P23977 whole entry): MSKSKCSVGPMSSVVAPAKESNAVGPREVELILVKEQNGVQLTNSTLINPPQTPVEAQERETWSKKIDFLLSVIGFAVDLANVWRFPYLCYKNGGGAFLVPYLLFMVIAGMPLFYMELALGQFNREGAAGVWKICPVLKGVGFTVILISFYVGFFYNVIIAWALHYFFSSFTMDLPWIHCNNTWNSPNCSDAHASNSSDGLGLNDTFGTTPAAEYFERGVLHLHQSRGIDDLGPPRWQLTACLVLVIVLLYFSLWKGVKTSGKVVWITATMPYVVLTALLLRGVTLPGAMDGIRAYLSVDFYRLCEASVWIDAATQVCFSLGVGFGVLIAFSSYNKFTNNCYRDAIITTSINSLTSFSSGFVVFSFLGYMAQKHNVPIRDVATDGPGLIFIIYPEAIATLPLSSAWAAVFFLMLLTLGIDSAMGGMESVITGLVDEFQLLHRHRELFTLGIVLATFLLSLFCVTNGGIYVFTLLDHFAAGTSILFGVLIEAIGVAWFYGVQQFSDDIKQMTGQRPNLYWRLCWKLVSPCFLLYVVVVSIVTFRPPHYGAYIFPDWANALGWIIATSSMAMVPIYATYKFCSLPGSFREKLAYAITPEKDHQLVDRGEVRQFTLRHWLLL
Protocol: DA clearance in striatum and nucleus accumbens of urethane-anesthetized SD rats was monitored by in vivo electrochemistry using high-speed chrono-amperometry [see 36]. After obtaining reproducible signals for locally applied DA, vehicle or drug was applied slowly over 10-30 sec, then 30-60 sec later the next application of DA was made, with subsequent DA applications at 5-minute intervals for 25-30 min. The DA kinetic data from each animal was analyzed using FAST software (Quanteon). […] These effects were no longer seen 3-5 minutes after lobinaline ejection. They are consistent with simple competitive inhibition of the DAT by lobinaline. […] However, the lobinaline N-oxides produce different effects. Representative data from lobinaline N-oxide, at the same concentration used for lobinaline (1 mM in 250 nl medium) are shown in FIG. 6. […] This is entirely consistent with effects on synaptosomal [3H]DA uptake in vitro above, and probably represents competitive inhibition. However, after exposure to the N-oxide there is a significant and prolonged (c20 min) increase in the first order rate of decay of the DA peak. […] This increase in rate constant induced by the N-oxide varied from 20× to 2× at increasing depths in the DV gradient.
The uptake rate of locally applied DA (˜100 nl; 200 μM) was measured before and 1 minute after local application of lobinaline (˜250 nl; 1 mM), 403 (˜300 nl; 250 μM) or 419 (˜300 nl; 250 μM) (FIGS. 7, 8, and 9).

DAT [2] = target: T1, DAT; assay: [3H]DA uptake into rat striatal synaptosomes; format: biochemical; set-up: from tissue; host or cells: rat striatum (synaptosomes; homogenate); conditions: compound added 15 min before [3H]DA, 30 min at 37° C, read-out: IC50, inhibition of [3H]-DA uptake
Protocol: Lobinaline or the N-oxides were added 15 min before addition of [3H]DA. Synaptosomal uptake of [3H]DA was measured after 30 min incubation at 37° C.

nicAChRs [3] = assay: [3H]DA release from superfused rat striatal slices; format: cell-based; conditions: 100 uM superfused before nicotine
Protocol: Effects of lobinaline and nicotine on [3H]DA release from superfused rat striatal slices (ref 5): rat brain striatal slices were incubated with [3H]DA for 30 min at […] before transfer to superfusion chambers. […] To evaluate the role of nicAChRs, striatal slices preloaded with [3H]-DA were pretreated with the nicAChR antagonist mecamylamine (10 μM) prior to superfusion of lobinaline (100 μM). […] With the data above from SHSY5Y cells, this supports a partial agonist action of lobinaline at nicAChRs. The N-oxides have not yet been tested in this system. Lobinaline has weak agonist effects on nicAChRs, but also has as yet unquantified antagonist effects (i.e. it acts as a partial agonist at nicAChRs).

alpha7-nicAChR = target: T2, alpha7-nicAChR (Rattus norvegicus, UniProt Q05941); assay: displacement of [3H]-methyllycaconitine; format: binding; conditions: alpha7-nicAChR selective radioligand
T2 construct: from tissue
T2 sequence (Q05941 23-502): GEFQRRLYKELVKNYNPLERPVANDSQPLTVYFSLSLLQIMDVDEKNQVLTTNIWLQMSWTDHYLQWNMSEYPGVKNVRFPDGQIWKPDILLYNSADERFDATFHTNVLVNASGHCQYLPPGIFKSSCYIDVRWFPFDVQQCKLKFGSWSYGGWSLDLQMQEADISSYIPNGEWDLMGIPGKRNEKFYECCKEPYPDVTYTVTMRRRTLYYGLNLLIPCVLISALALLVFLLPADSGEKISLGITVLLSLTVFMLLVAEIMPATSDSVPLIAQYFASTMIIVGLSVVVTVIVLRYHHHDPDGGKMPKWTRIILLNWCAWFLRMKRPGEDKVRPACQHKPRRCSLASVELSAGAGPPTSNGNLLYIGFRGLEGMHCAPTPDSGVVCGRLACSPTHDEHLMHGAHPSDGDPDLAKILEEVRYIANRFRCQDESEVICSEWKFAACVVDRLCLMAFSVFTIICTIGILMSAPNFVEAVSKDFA

[4] = conditioned place preference (abuse potential); format: in vivo, SD rats
Source text: In conditioned place preference a chamber with distinct cues is repeatedly paired with administration of the test drug. A second chamber is repeatedly paired with a control injection. After conditioning, a test phase allows the rat to move between the chambers. If a drug is “rewarding” (i.e. has abuse potential), the rat spends more time in the drug-associated chamber. If it is aversive, the opposite result is obtained.
Methods: 6 male and 6 female SD rats were used for each drug and dose. Test drugs (5 or 25 mg/kg lobinaline, or 25 mg/Kg of lobinaline bi-N-oxide S.C) were paired with the “less preferred” compartment (standard for drugs that may be weakly reinforcing) for 20 minutes. On the next day, rats received a control (DMSO/saline) injection and were placed in the preferred chamber. After three repeated pairings (test and control), the subjects were given access to both chambers and the time spent in each compartment was recorded and scored by an observer blind to treatment. Analysis was by two way ANOVA with post hoc Bonnferoni with significance set at p<0.05. Results. Most animals spent most of the test period in the compartment originally preferred in the drug-free state, and there were no significant differences between drug and vehicle controls.

nicAChRs [5] = assay: displacement of [3H]epibatidine from rat brain homogenates; format: binding
aqueous solubility = format: physicochemical
Source text: Lobinaline (FIG. 1), was isolated from plant material and identified as the first-known binitrogenous plant alkaloid more than 80 years ago [27]. The applicants began to test its pharmacological activity after identifying Lobelia cardinalis as a novel source of nicAChR activity by high throughput screening in 2005 [26]. This plant species has no history of abuse, or traditional medicinal use of relevance to SUDs. […] These actions support lobinaline as a lead compound for the treatment of SUDs, particularly alcohol and nicotine use disorders. […] Lobinaline also appears to have appropriate pharmacokinetics and low toxicity. […] Conversely, this makes it a good test of the ability of target-directed evolution to generate novel inhibitors of the DAT in mutant plant cells.
Lobinaline and the “mono”-N-oxide were separated from plant and culture material by acid/base extraction, but the bi-N-oxide was derived from lobinaline using 3-chloroperbenzoic acid. All these compounds were separated by column chromatography with identity and purity confirmed by LC/MS.

[6] = Drinking in the dark model of binge drinking; format: in vivo, C57Bl/6J mice; conditions: 25 mg/Kg SC
Protocol: “Drinking in the dark” is a model for binge drinking in which C57Bl/6J mice are given limited access to alcohol during their dark cycle. With repeated daily access, mice will voluntarily drink to blood alcohol levels above 150 mg/dl. Lobeline reduces alcohol consumption in this model and it has predictive validity in that both naltrexone and acamprosate are active.
Methods: 8 male and 8 female mice were used for each of these studies and scoring was by an observer blind to treatment. Statistical analysis was by ANOVA followed by Bonnferoni posthoc with significance at p<0.05.

alpha4/beta2 nicAChR = target: T3, alpha4/beta2 nicAChR (Rattus norvegicus, UniProt P09483+P12390); assay: displacement of beta2-selective radioligand [3H]cytisine; format: binding
T3 construct: from tissue
T3 sequence (P09483 31-630): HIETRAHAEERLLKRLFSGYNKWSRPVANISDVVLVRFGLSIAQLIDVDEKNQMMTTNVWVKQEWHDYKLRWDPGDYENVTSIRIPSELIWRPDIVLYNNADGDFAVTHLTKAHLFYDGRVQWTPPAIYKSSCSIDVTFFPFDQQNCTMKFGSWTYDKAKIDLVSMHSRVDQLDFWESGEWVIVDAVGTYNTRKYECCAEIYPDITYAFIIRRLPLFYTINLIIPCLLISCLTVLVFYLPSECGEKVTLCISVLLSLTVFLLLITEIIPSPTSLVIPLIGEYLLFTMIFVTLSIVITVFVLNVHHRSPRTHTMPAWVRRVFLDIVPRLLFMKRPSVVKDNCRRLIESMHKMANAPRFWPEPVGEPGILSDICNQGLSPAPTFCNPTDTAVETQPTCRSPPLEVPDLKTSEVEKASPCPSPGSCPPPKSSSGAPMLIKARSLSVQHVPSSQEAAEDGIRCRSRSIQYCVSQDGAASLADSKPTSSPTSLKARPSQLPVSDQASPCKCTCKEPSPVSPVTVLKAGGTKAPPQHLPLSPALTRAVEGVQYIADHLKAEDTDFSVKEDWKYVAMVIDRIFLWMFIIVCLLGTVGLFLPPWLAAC
T3 sequence (P12390 25-500): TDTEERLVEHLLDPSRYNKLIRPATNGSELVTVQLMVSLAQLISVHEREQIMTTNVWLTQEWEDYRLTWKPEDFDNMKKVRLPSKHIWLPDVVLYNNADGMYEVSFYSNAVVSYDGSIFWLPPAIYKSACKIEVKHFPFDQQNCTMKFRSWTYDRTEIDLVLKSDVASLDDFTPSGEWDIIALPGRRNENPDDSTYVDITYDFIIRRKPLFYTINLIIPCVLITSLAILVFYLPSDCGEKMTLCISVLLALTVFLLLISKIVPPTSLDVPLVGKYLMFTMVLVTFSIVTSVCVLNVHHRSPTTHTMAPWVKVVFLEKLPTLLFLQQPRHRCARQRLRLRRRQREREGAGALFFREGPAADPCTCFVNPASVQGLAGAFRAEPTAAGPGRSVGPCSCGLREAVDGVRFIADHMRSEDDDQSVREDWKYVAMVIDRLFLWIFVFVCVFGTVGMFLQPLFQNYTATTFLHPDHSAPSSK

DAT [7] = target: T1, DAT; assay: [3H]GBR 12935 binding to rat striatal homogenate; set-up: from tissue; host or cells: rat striatum (synaptosomes; homogenate)
Protocol: [3H]DA release from rat striatal synaptosomes: Synaptosomes preloaded with [3H]DA were exposed to lobinaline (10-500 uM), 30 min @ 37° C.). [3H]DA release was calculated by subtraction of activity following drug treatment from activity in the absence of drug.

## CN1CCCC2C(c3ccccc3)C(C3=NCCCC3)C(c3ccccc3)CC21 (stereo not shown) [lobinaline]
DAT [1]; 1-minute post-application
  effect on DA clearance rate: significantly decreased
DAT [1]; local application 1 mM, 250 nl
  effect on DA peak: non-significantly decreased
DAT [1]; local ejection in striatum
  time after ejection at which effects are no longer seen / DA clearance returns to normal: 3 to 5 min
DAT [1]; striatum, 1 minute after local application (lobinaline ~250 nl 1 mM; 403, 419 ~300 nl 250 μM), FIGS. 7-9
  reduction in DA clearance: 50%
DAT [2]
  IC50: 0.359 µM
nicAChRs [3]
  fractional [3H]DA release induced by 10 uM nicotine after test substance: completely prevented
alpha7-nicAChR
  Ki: 15 µM
[4]; after 3 repeated drug administrations
  overt toxicity: no signs of overt toxicity
[4]; lobinaline 5 or 25 mg/kg, bi-N-oxide 25 mg/Kg S.C
  sedation or locomotor activation: no sedation or locomotor activation
[4]; lobinaline 5 or 25 mg/kg, bi-N-oxide 25 mg/Kg S.C, three pairings
  conditioned place preference or aversion: neither lobinaline nor the lobinaline bi-N-oxide produced conditioned place preference or aversion
nicAChRs [5]
  Ki: 16 µM
  character of [3H]epibatidine displacement: monophasically displaced
Aqueous solubility
  aqueous solubility: very low aqueous solubility
[6]
  food or water intake: no reduction in food or water intake
  overt toxicity: neither compound produced overt toxicity
[6]; males and females
  inhibition of alcohol consumption: ~40%
alpha4/beta2 nicAChR
  Ki: 1.1 µM
DAT [7]
  extent of displacement of [3H]GBR 12935: completely displaced
DAT [7]; read-out: Ki, displacement of [3H]GBR 12935
  Ki: 2.54 µM
